Values belong to the molecule of their own block, whether it stands above or below them.
Legend:
[1] = tested on: upper airway collapsibility in anaesthetized, spontaneously breathing pigs; test: pig model of obstructive sleep apnea (OSA): upper airway collapsibility under negative pressure; format: in vivo, German Landrace pigs
Excerpt: The therapeutic potential of the combination of a TASK1/3 channel blocker with a P2X3 receptor antagonist according to the present invention in sleep apnea can be assessed preclinically in a pig model of obstructive sleep apnea (OSA).
Using negative pressure, it is possible to induce collapse and thus obstruction of the upper respiratory tract in anaesthetized, spontaneously breathing pigs (Wirth K. J. et al., Sleep 36(5) (2013) pp. 699-708).
German Landrace pigs are used for the model. The pigs are anaesthetized and tracheotomized. Two tracheal cannulas are inserted into the trachea, one into the rostral part and the other into the caudal part of the trachea. Using a connection piece, the rostral cannula is connected to a tube to the negative pressure device and to the distal tracheal cannula. The distal tracheal cannula is additionally connected to a tube with an open end to atmosphere via a connection piece that served for free tracheal breathing, circumventing the upper airway. By appropriate opening and clamping of those tubes breathing can be switched from nasal breathing to breathing through the caudal tracheal cannula, circumventing the upper airway, and the (isolated) upper airway can be connected to the negative pressure device, causing airflow in the inspiratory direction.
At certain points in time, the collapsibility of the upper respiratory tract is tested by having the pig breathe via the caudal cannula and applying negative pressures of −50, −100 and −150 cm water head (cm H2O) to the upper respiratory tract. This causes the upper respiratory tract to collapse, which manifests itself in an interruption of the airflow and a pressure drop in the tube system. This test is conducted prior to the administration of the test substance and at certain intervals after the administration of the test substance. An appropriately effective test substance can prevent this collapse of the respiratory tract in the inspiratory phase.

[2] = free plasma concentrations of Gefapixant in the OSA pig model (FIG. 4); format: in vivo, German Landrace pigs; conditions: pigs, minimal effective dose of Gefapixant (iv bolus 0.3 mg/kg then infusion 0.1 mg/kg/h)
[3] = Gefapixant iv bolus 0.3 mg/kg then iv infusion 0.1 mg/kg/h for four hours, given at 0 min, time 0 min
[4] = Gefapixant iv bolus 0.3 mg/kg then iv infusion 0.1 mg/kg/h for four hours, given at 0 min, time 10 min
[5] = Gefapixant iv bolus 0.3 mg/kg then iv infusion 0.1 mg/kg/h for four hours, given at 0 min, time 30 min
[6] = Gefapixant iv bolus 0.3 mg/kg then iv infusion 0.1 mg/kg/h for four hours, given at 0 min, time 60 min
[7] = Gefapixant iv bolus 0.3 mg/kg then iv infusion 0.1 mg/kg/h for four hours, given at 0 min, time 120 min
[8] = Gefapixant iv bolus 0.3 mg/kg then iv infusion 0.1 mg/kg/h for four hours, given at 0 min, time 180 min
[9] = Gefapixant iv bolus 0.3 mg/kg then iv infusion 0.1 mg/kg/h for four hours, given at 0 min, time 240 min
[10] = Gefapixant iv bolus 0.3 mg/kg then iv infusion 0.1 mg/kg/h for four hours, given at 0 min, time 300 min
[11] = 0.3 μg intranasal given at 0 min, time 0 min
[12] = 0.3 μg intranasal given at 0 min, time 10 min
[13] = 0.3 μg intranasal given at 0 min, time 30 min
[14] = 0.3 μg intranasal given at 0 min, time 60 min
[15] = 0.3 μg intranasal given at 0 min, time 90 min

free plasma concentrations [2]: about 100 nM
Compound: COc1cc(C(C)C)c(Oc2cnc(N)nc2N)cc1S(N)(=O)=O [Gefapixant]
Percent pigs without collaps −50 cm H2O, % [1, 3]: 0%
Percent pigs without collaps −50 cm H2O, % [1, 4]: 0%
Percent pigs without collaps −50 cm H2O, % [1, 5]: 100%
Percent pigs without collaps −50 cm H2O, % [1, 6]: 100%
Percent pigs without collaps −50 cm H2O, % [1, 7]: 0%
Percent pigs without collaps −50 cm H2O, % [1, 8]: 0%
Percent pigs without collaps −50 cm H2O, % [1, 9]: 0%
Percent pigs without collaps −50 cm H2O, % [1, 10]: 0%
Percent pigs without collaps −100 cm H2O, % [1, 3]: 0%
Percent pigs without collaps −100 cm H2O, % [1, 4]: 0%
Percent pigs without collaps −100 cm H2O, % [1, 5]: 100%
Percent pigs without collaps −100 cm H2O, % [1, 6]: 0%
Percent pigs without collaps −100 cm H2O, % [1, 7]: 0%
Percent pigs without collaps −100 cm H2O, % [1, 8]: 0%
Percent pigs without collaps −100 cm H2O, % [1, 9]: 0%
Percent pigs without collaps −100 cm H2O, % [1, 10]: 0%
Percent pigs without collaps −150 cm H2O, % [1, 3]: 0%
Percent pigs without collaps −150 cm H2O, % [1, 4]: 0%
Percent pigs without collaps −150 cm H2O, % [1, 5]: 100%
Percent pigs without collaps −150 cm H2O, % [1, 6]: 0%
Percent pigs without collaps −150 cm H2O, % [1, 7]: 0%
Percent pigs without collaps −150 cm H2O, % [1, 8]: 0%
Percent pigs without collaps −150 cm H2O, % [1, 9]: 0%
Percent pigs without collaps −150 cm H2O, % [1, 10]: 0%
effectiveness of the dose on upper airway collapsibility ([1]; iv bolus 0.3 mg/kg then iv infusion 0.1 mg/kg/h for four hours): minimal effective dose
only time point after intravenous application at which upper airway collapsibility was inhibited at all three negative pressures in all pigs ([1]; iv bolus 0.3 mg/kg then iv infusion 0.1 mg/kg/h for four hours, −50, −100 and −150 cm H2O): 30 min

Compound: COc1ccc(Cl)c(C(=O)N2C3CCC2CN(Cc2c(-c4ccc(C(C)C)cc4)nc4ncccn24)C3)n1 [(3-chloro-6-methoxypyridin-2-yl)(3-{[2-(4-isopropylphenyl)imidazo[1,2-a]pyrimidin-3-yl]methyl}-3,8-diazabicyclo[3.2.1]oct-8-yl)methanone]
effectiveness of the dose on upper airway collapsibility ([1]; 0.3 μg intranasal): non effective dose
Percent pigs without collaps −50 cm H2O, % [1, 11]: 0%
Percent pigs without collaps −50 cm H2O, % [1, 12]: 33%
Percent pigs without collaps −50 cm H2O, % [1, 13]: 0%
Percent pigs without collaps −50 cm H2O, % [1, 14]: 0%
Percent pigs without collaps −50 cm H2O, % [1, 15]: 0%
Percent pigs without collaps −100 cm H2O, % [1, 11]: 0%
Percent pigs without collaps −100 cm H2O, % [1, 12]: 33%
Percent pigs without collaps −100 cm H2O, % [1, 13]: 0%
Percent pigs without collaps −100 cm H2O, % [1, 14]: 0%
Percent pigs without collaps −100 cm H2O, % [1, 15]: 0%
Percent pigs without collaps −150 cm H2O, % [1, 11]: 0%
Percent pigs without collaps −150 cm H2O, % [1, 12]: 0%
Percent pigs without collaps −150 cm H2O, % [1, 13]: 0%
Percent pigs without collaps −150 cm H2O, % [1, 14]: 0%
Percent pigs without collaps −150 cm H2O, % [1, 15]: 0%
